Data on 37 molecules can be found in US10668051B2, “Modulators of calcium release-activated calcium channel” (Rhizen Pharmaceuticals SA, priority 2009, dated 2020).

Counter-ions that a name gives are not always drawn.

Sequence of CRAC channels (Q96D31 whole entry): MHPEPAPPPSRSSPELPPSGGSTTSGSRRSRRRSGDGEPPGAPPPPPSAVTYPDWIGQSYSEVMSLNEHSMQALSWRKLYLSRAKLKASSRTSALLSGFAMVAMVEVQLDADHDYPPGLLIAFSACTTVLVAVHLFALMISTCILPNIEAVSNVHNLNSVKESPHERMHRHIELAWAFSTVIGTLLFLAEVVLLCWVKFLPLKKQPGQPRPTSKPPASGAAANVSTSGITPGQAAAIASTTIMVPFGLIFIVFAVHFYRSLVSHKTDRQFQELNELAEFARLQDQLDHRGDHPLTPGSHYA

The experiment has as its target CRAC channels (Homo sapiens (Human), UniProt Q96D31). The experiment is described as follows: In-vitro CRAC channel inhibition assay in Jurkat cells (thapsigargin-induced calcium influx). The experiment is classed as cell-based. As to the method: 1A. In-Vitro CRAC Channel Inhibition Assay in Jurkat Cells
Plate is incubated at 37° C./5% CO2 for 30 min followed by further 15 min incubation at room temperature. Test compounds (DMSO stocks diluted in Ca^2+ and Mg^2+ free Hanks buffer) at desired concentrations were added to the wells and incubated for 15 min. Thapsigargin (1 μM final concentration) was added to the wells and incubated for 15 min to inhibit the Sarco-endoplasmic reticulum Ca^2+ ATPase pump thereby depleting endoplasmic calcium and raising cytosolic calcium concentrations. Store-operated calcium entry was initiated by adding extracellular Ca^2+ to a final concentration of 1.8 mM. Fluorescence was monitored over 5 min on a plate reader (BMG Labtech., Germany) with excitation at 485 nm and; an emission wavelength at 520 nm. Data were analyzed using GraphPad Prism. IC50 for each compound was determined based on the percent inhibition of thapsigargin-induced calcium influx into cells.
A word on the inhibition: it is the percentage by which the read-out fell short of the control. With `Cc1nc(C)c(C(=O)Nc2ccc(-n3nc(C4CC4)cc3C3CC3)cc2)s1` [Example 3, N-[4-(3,5-dicyclopropyl-1H-pyrazol-1-yl)phenyl]-2,4-dimethylthiazole-5-carboxamide], the inhibition at 1 µM is 72.2%.

Turning to `Cc1oncc1C(=O)Nc1ccc(-n2nc(C3CC3)cc2C2CC2)cc1` [Example 4, N-[4-(3,5-dicyclopropyl-1H-pyrazol-1-yl)phenyl]-5-methylisoxazole-4-carboxamide], the inhibition at 1 µM was 100%.

Consider `Cc1noc(C)c1C(=O)Nc1ccc(-n2nc(C3CC3)cc2C2CC2)cc1` [Example 5, N-[4-(3,5-dicyclopropyl-1H-pyrazol-1-yl)phenyl]-3,5-dimethylisoxazole-4-carboxamide], for which the inhibition at 1 µM turned out to be 48.5%.

For `Cc1ccccc1C(=O)Nc1ccc(-n2nc(C3CC3)cc2C2CC2)cc1` [Example 7, N-[4-(3,5-dicyclopropyl-1H-pyrazol-1-yl)phenyl]-2-methylbenzamide], the inhibition at 1 µM was found to be 99%.

As to `O=C(Nc1ccc(-n2nc(C3CC3)cc2C2CC2)cc1)c1c(F)cccc1F` [Example 8, N-[4-(3,5-dicyclopropyl-1H-pyrazol-1-yl)phenyl]-2,6-difluorobenzamide], the inhibition at 1 µM turned out to be 100%.

Regarding `CS(=O)(=O)c1cccc(C(=O)Nc2ccc(-n3nc(C4CC4)cc3C3CC3)cc2)c1` [Example 10], the inhibition at 1 µM is 49.5%.

For `CS(=O)(=O)c1ccc(C(=O)Nc2ccc(-n3nc(C4CC4)cc3C3CC3)cc2)cc1` [Example 11, N-[4-(3,5-dicyclopropyl-1H-pyrazol-1-yl)phenyl]-4-(methylsulfonyl)benzamide], the inhibition at 1 µM was found to be 71.9%.

As for `CSc1ccc(Cl)c(C(=O)Nc2ccc(-n3nc(C4CC4)cc3C3CC3)cc2)c1` [Example 12, 2-chloro-N-[4-(3,5-dicyclopropyl-1H-pyrazol-1-yl)phenyl]-5-(methylthio)benzamide], the inhibition at 1 µM came to 90.8%.

On to `CS(=O)(=O)c1ccc(Cl)c(C(=O)Nc2ccc(-n3nc(C4CC4)cc3C3CC3)cc2)c1` [Example 13, 2-chloro-N-[4-(3,5-dicyclopropyl-1H-pyrazol-1-yl)phenyl)-5-(methylsulfonyl)benzamide], for which the inhibition at 1 µM came out at 37.2%.

As for `O=C(Nc1ccc(-n2nc(C3CC3)cc2C2CC2)cc1)c1cccnc1` [Example 14, N-[4-(3,5-dicyclopropyl-1H-pyrazol-1-yl)phenyl]nicotinamide hydrochloride], the inhibition at 1 µM is 25.9%.

For the molecule `O=C(Nc1ccc(-n2nc(C3CC3)cc2C2CC2)cc1)c1ccncc1` [Example 15, N-[4-(3,5-dicyclopropyl-1H-pyrazol-1-yl)phenyl]isonicotinamide hydrochloride], the inhibition at 1 µM was 94%.

Take `O=C(Nc1ccc(-n2nc(C3CC3)cc2C2CC2)cc1)c1ccncc1F` [Example 16, N-[4-(3,5-dicyclopropyl-1H-pyrazole-1-yl)phenyl]-3-fluoroisonicotinamide]: the inhibition at 1 µM was 92.8%.

As for `O=C(Nc1ccc(-n2nc(C3CC3)cc2C2CC2)cc1)c1c(Cl)cncc1Cl` [Example 17, 3,5-dichloro-N-(4-(3,5-dicyclopropyl-1H-pyrazol-1-yl)phenyl)isonicotinamide], the inhibition at 1 µM was 87.5%.

With `Cc1ncncc1C(=O)Nc1ccc(-n2nc(C3CC3)cc2C2CC2)cc1` [Example 18, N-[4-(3,5-dicyclopropyl-1H-pyrazol-1-yl)phenyl]-4-methylpyrimidine-5-carboxamide], the inhibition at 1 µM is 82.8%.

Take `O=C(Cc1ccccc1)Nc1ccc(-n2nc(C3CC3)cc2C2CC2)cc1` [Example 19, N-[4-(3,5-dicyclopropyl-1H-pyrazol-1-yl)phenyl]-2-phenylacetamide]: the inhibition at 1 µM is 73.5%.

As for `O=C(Cc1ccc(F)cc1)Nc1ccc(-n2nc(C3CC3)cc2C2CC2)cc1` [Example 20, N-[4-(3,5-dicyclopropyl-1H-pyrazol-1-yl)phenyl]-2-(4-fluorophenyl)acetamide], the inhibition at 1 µM stood at 70.2%.

Take `O=C(Cc1ccccn1)Nc1ccc(-n2nc(C3CC3)cc2C2CC2)cc1` [Example 22, N-[4-(3,5-dicyclopropyl-1H-pyrazol-1-yl)phenyl]-2-(pyridin-2-yl)acetamide hydrochloride]: the inhibition at 1 µM is 73.4%.

As to `O=C(Cc1cccnc1)Nc1ccc(-n2nc(C3CC3)cc2C2CC2)cc1` [Example 23, N-[4-(3,5-dicyclopropyl-1H-pyrazol-1-yl)phenyl]-2-(pyridin-3-yl)acetamide hydrochloride], the inhibition at 1 µM came out at 53.8%.

On to `O=C(Cc1ccncc1)Nc1ccc(-n2nc(C3CC3)cc2C2CC2)cc1` [Example 24, N-[4-(3,5-dicyclopropyl-1H-pyrazol-1-yl)phenyl]-2-(pyridin-4-yl)acetamide hydrochloride], for which the inhibition at 1 µM was 38%.

In the case of `O=C(CN1CCNCC1)Nc1ccc(-n2nc(C3CC3)cc2C2CC2)cc1` [Example 25, N-[4-(3,5-dicyclopropyl-1H-pyrazol-1-yl)phenyl]-2-(piperazin-1-yl)acetamide hydrochloride], the inhibition at 1 µM came out at 29%.

In the case of `O=C(CN1CCOCC1)Nc1ccc(-n2nc(C3CC3)cc2C2CC2)cc1` [Example 26, N-[4-(3,5-dicyclopropyl-1H-pyrazol-1-yl)phenyl]-2-morpholinoacetamide], the inhibition at 1 µM worked out at 43%.

Regarding `O=S(=O)(Nc1ccc(-n2nc(C3CC3)cc2C2CC2)cc1)c1ccccc1` [Example 27, N-[4-(3,5-dicyclopropyl-1H-pyrazol-1-yl)phenyl]benzenesulfonamide], the inhibition at 1 µM turned out to be 91.2%.

Turning to `Cc1ncsc1C(=O)Nc1ccc(-n2nc(C3CC3)cc2C2CC2)c(F)c1` [Example 29, N-[4-(3,5-dicyclopropyl-1H-pyrazol-1-yl)-3-fluorophenyl]-4-methylthiazole-5-carboxamide], the inhibition at 1 µM was 100%.

`Cc1noc(C)c1C(=O)Nc1ccc(-n2nc(C3CC3)cc2C2CC2)c(F)c1` [Example 30, N-[4-(3,5-dicyclopropyl-1H-pyrazol-1-yl)-3-fluorophenyl]-3,5-dimethylisoxazole-4-carboxamide]: the inhibition at 1 µM was found to be 35.1%.

Consider `Cc1ccccc1C(=O)Nc1ccc(-n2nc(C3CC3)cc2C2CC2)c(F)c1` [Example 31, N-[4-(3,5-dicyclopropyl-1H-pyrazol-1-yl)-3-fluorophenyl]-2-methyl benzamide], for which the inhibition at 1 µM came out at 77%.

As for `O=C(Nc1ccc(-n2nc(C3CC3)cc2C2CC2)c(F)c1)c1cccc(F)c1F` [Example 32, N-[4-(3,5-dicyclopropyl-1H-pyrazol-1-yl)-3-fluorophenyl]-2,3-difluorobenzamide], the inhibition at 1 µM is 63.6%.

With `O=C(Nc1ccc(-n2nc(C3CC3)cc2C2CC2)c(F)c1)c1c(F)cccc1F` [Example 33, N-[4-(3,5-dicyclopropyl-1H-pyrazol-1-yl)-3-fluorophenyl]-2,6-difluorobenzamide], the inhibition at 1 µM is 93.1%.

Consider `O=C(Nc1ccc(-n2nc(C3CC3)cc2C2CC2)c(F)c1)c1cccnc1` [Example 34, N-[4-(3,5-dicyclopropyl-1H-pyrazol-1-yl)-3-fluorophenyl]nicotinamide hydrochloride], for which the inhibition at 1 µM is 21.5%.

In the case of `Cl.O=C(Nc1ccc(-n2nc(C3CC3)cc2C2CC2)c(F)c1)c1ccncc1` [Example 35, N-[4-(3,5-dicyclopropyl-1H-pyrazol-1-yl)-3-fluorophenyl]isonicotinamde hydrochloride], the “% inhibition (1 uM)” value was determined as 100%.

Consider `Cc1ncncc1C(=O)Nc1ccc(-n2nc(C3CC3)cc2C2CC2)c(F)c1` [Example 36, N-[4-(3,5-dicyclopropyl-1H-pyrazol-1-yl)-3-fluorophenyl]-4-methylpyrimidine-5-carboxamide], for which the inhibition at 1 µM worked out at 68.2%.

For `Cc1nnsc1C(=O)Nc1ccc(-n2nc(C3CC3)c(Cl)c2C2CC2)c(F)c1` [Example 37, N-[4-(4-chloro-3,5-dicyclopropyl-1H-pyrazol-1-yl)-3-fluorophenyl]-4-methyl-1,2,3-thiadiazole-5-carboxamide], the inhibition at 1 µM stood at 82.2%.

Turning to `Cc1nnsc1C(=O)Nc1ccc(-n2nc(C3CC3)cc2C2CC2)nc1` [Example 38, N-[6-(3,5-dicyclopropyl-1H-pyrazol-1-yl)pyridin-3-yl]-4-methyl-1,2,3-thiadiazole-5-carboxamide hydrochloride], the inhibition at 1 µM was determined as 52.7%.

Take `Cc1ncsc1C(=O)Nc1ccc(-n2nc(C3CC3)cc2C2CC2)nc1` [Example 39, N-[6-(3,5-dicyclopropyl-1H-pyrazol-1-yl)pyridin-3-yl]-4-methylthiazole-5-carboxamide hydrochloride]: the inhibition at 1 µM is 41.3%.

As for `Cc1nc(C)c(C(=O)Nc2ccc(-n3nc(C4CC4)cc3C3CC3)nc2)s1` [Example 40, N-[6-(3,5-dicyclopropyl-1H-pyrazol-1-yl)pyridin-3-yl]-2,4-dimethylthiazole-5-carboxamide], the inhibition at 1 µM stood at 12.6%.

Regarding `Cc1noc(C)c1C(=O)Nc1ccc(-n2nc(C3CC3)cc2C2CC2)nc1` [Example 41, N-[6-(3,5-dicyclopropyl-1H-pyrazol-1-yl)pyridin-3-yl]-3,5-dimethylisoxazole-4-carboxamide], the inhibition at 1 µM came to 0%.

In the case of `Cc1ccccc1NC(=O)c1ccc(-n2nc(C3CC3)cc2C2CC2)nc1` [Example 42, 6-(3,5-dicyclopropyl-1H-pyrazol-1-yl)-N-o-tolylnicotinamide], the inhibition at 1 µM is 26.2%.

As for `O=C(Nc1ccc(-n2nc(C3CC3)cc2C2CC2)nc1)c1ccccc1F` [Example 43, N-[6-(3,5-dicyclopropyl-1H-pyrazol-1-yl)pyridin-3-yl]-2-fluorobenzamide], the inhibition at 1 µM came out at 9.34%.
